Values quoted from earlier work in patent US8691283B2, “Standardized bee venom preparation” (priority 2000, dated 2014).

System: hypophyseal-adrenal system
Details: melittin stimulates the hypophyseal-adrenal system and produces cortisone

CC[C@H](C)[C@H](NC(=O)CN)C(=O)NCC(=O)N[C@@H](C)C(=O)N[C@H](C(=O)N[C@@H](CC(C)C)C(=O)N[C@@H](CCCCN)C(=O)N[C@H](C(=O)N[C@@H](CC(C)C)C(=O)N[C@H](C(=O)N[C@H](C(=O)NCC(=O)N[C@@H](CC(C)C)C(=O)N1CCC[C@H]1C(=O)N[C@@H](C)C(=O)N[C@@H](CC(C)C)C(=O)N[C@H](C(=O)N[C@@H](CO)C(=O)N[C@@H](Cc1c[nH]c2ccccc12)C(=O)N[C@H](C(=O)N[C@@H](CCCCN)C(=O)N[C@@H](CCCNC(=N)N)C(=O)N[C@@H](CCCCN)C(=O)N[C@@H](CCCNC(=N)N)C(=O)N[C@@H](CCC(N)=O)C(=O)N[C@@H](CCC(N)=O)C(N)=O)[C@@H](C)CC)[C@@H](C)CC)[C@@H](C)O)[C@@H](C)O)C(C)C)C(C)C [melittin, Melittin]
potency relative to hydrocortisone: 100 times
